Laboratory results from patent publication US12295396B2, “Antagonists of T2R54 and compositions and uses thereof” (Firmenich Incorporated, priority 2018, dated 2025).

Target: T1, hT2R54 (Homo sapiens, UniProt P59534)
T1 construct: expressed in transfected cells; it overexpresses a promiscuous G protein
T1 sequence (P59534 1-338): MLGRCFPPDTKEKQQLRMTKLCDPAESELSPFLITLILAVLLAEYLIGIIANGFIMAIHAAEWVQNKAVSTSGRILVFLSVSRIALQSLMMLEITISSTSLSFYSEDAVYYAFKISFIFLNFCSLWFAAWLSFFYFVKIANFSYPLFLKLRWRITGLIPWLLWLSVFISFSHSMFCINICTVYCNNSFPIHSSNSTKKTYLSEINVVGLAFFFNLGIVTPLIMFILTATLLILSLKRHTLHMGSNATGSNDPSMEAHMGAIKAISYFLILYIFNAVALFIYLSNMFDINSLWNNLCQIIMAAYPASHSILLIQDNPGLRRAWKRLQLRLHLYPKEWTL
Assay: Cell-based assay for measuring hT2R54 inhibition (FLIPR calcium, Fluo4AM, acetaminophen as bitter agonist)
Details: Table 2; cells stably expressing hT2R54 and a promiscuous G protein; read-out: hT2R54 IC50
In short: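 The readout was FLIPR calcium (Fluo4AM, 10 s baseline, 3 min post-addition) in cells stably carrying hT2R54 plus a promiscuous G protein, with host cells lacking hT2R54 as counter-control. Acetaminophen concentration series were tested with and without set test-compound levels. Half-maximal block of the agonist response gave the EC50/IC50.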

| IC50 [nM] | SMILES |
| --- | --- |
| 200 | CC(=O)c1cc2c(cc1NC(=O)CN1CCN(C(=O)CC3CCOC3)CC1)OCO2 (centres unmarked) [compound 323] |
| 50 | CCC(=O)N1CCN(CC(=O)Nc2cc3c(cc2C(C)=O)OCO3)CC1 [compound 8] |
| 31 | CC(=O)c1cc2c(cc1NC(=O)CN1CCN(C(=O)c3nccn3C)CC1)OCO2 [compound 305] |
| 600 | COc1cc2c(cc1NC(=O)CN1CCN(C(=O)c3cn(C)nc3C)CC1)OCO2 [compound 363] |
| > 10000 | CC(=O)c1cc2c(cc1NC(=O)CN1CCN(C(=O)CN3CCCC3)CC1)OCCO2 [compound 345] |
| 60 | COCC(=O)N1CCN(CC(=O)Nc2cc3c(cc2C(C)=O)OCO3)CC1 [compound 19] |
| 216 | CC(=O)c1cc2c(cc1NC(=O)CN1CCN(C(=O)CO)CC1)OCO2 [compound 18] |
| 100 | COc1cc2c(cc1NC(=O)CN1CCN(C(=O)c3cc(C)c(C)o3)CC1)OCO2 [compound 395] |
| 40 | COc1ccccc1C(=O)N1CCN(CC(=O)Nc2cc3c(cc2C(C)=O)OCO3)CC1 [compound 41] |
| 30 | CC(=O)c1cc2c(cc1NC(=O)CN1CCN(C(=O)C3CCCCO3)CC1)OCCO2 (centres unmarked) [compound 343] |

| SMILES | IC50 [nM] |
| --- | --- |
| CC(=O)c1cc2c(cc1NC(=O)CN1CCN(C(=O)Cc3ccccc3F)CC1)OCO2 [compound 55] | 70 |

Same assay, conditions: Table 4; cells stably expressing hT2R54 and a promiscuous G protein; read-out: hT2R54 IC50

| IC50 [nM] | SMILES |
| --- | --- |
| ~2000 | COC(=O)c1cc2c(cc1NC(=O)CN1CCOCC1)CCCC2 [compound 439] |
| 630 | CC(=O)c1cc2c(cc1NC(=O)CN1CCOCC1)OCCO2 [compound 152] |
| 2 | COC1CCCN(CC(=O)Nc2cc3c(cc2C(C)=O)OCO3)C1 (centres unmarked) [compound 123] |
| 206 | CCOC(=O)[C@@H]1CCCN1CC(=O)Nc1cc2c(cc1C(C)=O)OCO2 [compound 112, Ethyl (2-((6-acetylbenzo[d][1,3]dioxol-5-yl)amino)-2-oxoethyl)-L-prolinate] |
| 439 | CC(=O)c1cc2c(cc1NC(=O)CN1CCCCC1)OCO2 [compound 417] |
| 433 | CC(=O)c1cc2c(cc1NC(=O)CN(C)C1CCN(C(=O)OC(C)(C)C)CC1)OCO2 [compound 140] |
| 885 | COc1cc2c(cc1NC(=O)CN1CCCc3cccc(F)c31)OCO2 [compound 149] |
| 61 | CCOC(=O)C1CCN(CC(=O)Nc2cc3c(cc2C(C)=O)OCO3)C1 (centres unmarked) [compound 114, Ethyl 1-(2-((6-acetylbenzo[d][1,3]dioxol-5-yl)amino)-2-oxoethyl)pyrrolidine-3-carboxylate] |
| 24 | CCOC(=O)C1CCCN(CC(=O)Nc2cc3c(cc2C(C)=O)OCCO3)C1 (centres unmarked) [compound 118, Ethyl 1-(2-((7-Acetyl-2,3-dihydrobenzo[b][1,4]dioxin-6-yl)amino)-2-oxoethyl)piperidine-3-carboxylate] |

Same assay, conditions: Table 6; cells stably expressing hT2R54 and a promiscuous G protein; read-out: hT2R54 IC50

| IC50 [nM] | SMILES |
| --- | --- |
| 310 | CCC(=O)NC1CCN(CC(=O)Nc2cc3c(cc2C(C)=O)OCO3)CC1 [compound 167] |

Same assay, conditions: Table 7; cells stably expressing hT2R54 and a promiscuous G protein; read-out: hT2R54 IC50

| IC50 [nM] | SMILES |
| --- | --- |
| 98 | CC(=O)c1cc2c(cc1NC(=O)CN(C)C1CCN(C(=O)CC(C)C)CC1)OCO2 [compound 184, N-(6-Acetylbenzo[d][1,3]dioxol-5-yl)-2-(methyl(1-(3-methylbutanoyl)piperidin-4-yl)amino)acetamide] |

Same assay, conditions: Table 8; read-out: hT2R54 IC50

| IC50 [nM] | SMILES |
| --- | --- |
| 300 | CC(=O)c1cc2c(cc1NC(=O)CC1CCN(C(=O)CC3CCCO3)CC1)OCO2 (centres unmarked) [compound 476] |
| 2540 | CC(=O)c1cc2c(cc1NC(=O)CC1CCN(C(=O)Cc3cccc(F)c3)CC1)OCO2 [compound 249] |
| 320 | CC(=O)c1cc2c(cc1NC(=O)CC1CCN(C(=O)Cc3ccc(O)cc3)CC1)OCO2 [compound 254] |
| 844 | CCCC(=O)N1CCC(CC(=O)Nc2cc3c(cc2C(C)=O)OCO3)C1 (centres unmarked) [compound 260] |
| 34 | CCOC(=O)N1CCC(CC(=O)Nc2cc3c(cc2C(C)=O)OCO3)CC1 [compound 240] |

Same assay, conditions: Table 9; read-out: hT2R54 IC50

| IC50 [nM] | SMILES |
| --- | --- |
| 12000 | COC(=O)c1cc2c(cc1NC(=O)CC1CCOCC1)OCCO2 [compound 529] |

Same assay, conditions: other T2R54 bitter blockers (table after b418); read-out: hT2R54 IC50

| IC50 [nM] | SMILES |
| --- | --- |
| 2900 | Cc1cc(N2CCC(C(N)=O)CC2)nc(-c2ccccc2)n1 [A, 1-(6-Methyl-2-phenylpyrimidin-4-yl)piperidine-4-carboxamide] |
